The values that follow are results of earlier work, collected in patent US10471156B2, “Pharmaceutical composition comprising amorphous lenalidomide” (SYNTHON B.V., priority 2014, dated 2019).

In the case of `Nc1cccc2c1CN(C1CCC(=O)NC1=O)C2=O` (racemic) [Lenalidomide, (RS)-3-(4-Amino-1-oxo 1,3-dihydro-2H-isoindol-2-yl)piperidine-2,6-dione], the solubility in water result was “slightly soluble”. Take 2-hydroxypropyl-β-cyclodextrin: the aqueous solubility result (water) is listed as “exceeding 600 mg/ml”.
